Data set [1] is described as follows: Inhibition of IDH2 R140Q mutant in human U-87 MG cells incubated for 72 hrs by measuring 2-HG production by fluorescence based analysis. The data set is classed as functional, cell-based, U-87MG ATCC. As to conditions: Homo sapiens, U-87 MG, 72 h.
Data set [2] can be described thus: Inhibition of IDH1 R132H mutant in human U-87 MG cells incubated for 72 hrs by measuring 2-HG production by fluorescence based analysis. The data set is classed as functional, cell-based, U-87MG ATCC. The settings on record: Homo sapiens, U-87 MG, 72 h.
Data set [3] can be described thus: Apparent permeability across apical to basolateral side in human Caco-2 cells at 10 uM incubated for 1 hrs by LC-MS/MS analysis.
Data set [4] can be described thus: Apparent permeability across basolateral to apical side in human Caco-2 cells at 10 uM incubated for 1 hrs by LC-MS/MS analysis.
The nature of data set [5]: Metabolic stability in male SD rat liver microsomes assessed as parent compound remaining at 1 uM measured after 30 mins in presence of NADPH by LC-MS analysis. The settings on record: Sprague-Dawley, read-out: Stability. It counts as ADME, Microsome.
The nature of data set [6]: Metabolic stability in male ICR mouse liver microsomes assessed as parent compound remaining at 1 uM measured after 30 mins in presence of NADPH by LC-MS analysis. It counts as ADME, Microsome. As to conditions: read-out: Stability.
Data set [7] can be described thus: Clearance in male ICR mouse at 2.5 mg/kg, iv measured after 8 hrs by LC/MS/MS analysis. The settings on record: in vivo. It counts as ADME, organism-based.
Data set [8] can be described thus: Volume of distribution at steady state in male ICR mouse at 2.5 mg/kg, iv measured after 8 hrs by LC/MS/MS analysis. The data set is classed as ADME, organism-based. The settings on record: in vivo, read-out: Vdss.
A short description of data set [9]: Half life in male ICR mouse at 10 mg/kg, po measured after 8 hrs by LC/MS/MS analysis. The data set is classed as ADME, organism-based. The settings on record: in vivo.
The nature of data set [10]: Cmax in male ICR mouse at 10 mg/kg, po measured after 8 hrs by LC/MS/MS analysis. The data set is classed as ADME, organism-based. As to conditions: in vivo.
Data set [11] is described as follows: AUC(0 to t) in male ICR mouse at 10 mg/kg, po measured after 8 hrs by LC/MS/MS analysis. The data set is classed as ADME, organism-based. The settings on record: in vivo.
Data set [12] is described as follows: AUC(0 to infinity) in male ICR mouse at 10 mg/kg, po measured after 8 hrs by LC/MS/MS analysis. The data set is classed as ADME, organism-based. As to conditions: in vivo.
The nature of data set [13]: Oral bioavailability in male ICR mouse at 10 mg/kg measured after 8 hrs by LC/MS/MS analysis. The data set is classed as ADME, organism-based. The settings on record: in vivo.
The nature of data set [14]: AUC(0 to t) in male ICR mouse at 10 mg/kg, po measured upto 24 hrs by LC/MS/MS analysis. It counts as ADME, organism-based. The settings on record: in vivo.
Data set [15] is described as follows: Inhibition of IDH1 R132H mutant in human TF-1 cells incubated for 72 hrs by measuring 2-HG production by fluorescence based analysis. The data set is classed as functional, cell-based. The settings on record: TF-1, 72 h.
A short description of data set [16]: Inhibition of IDH1 R132C mutant in human HT-1080 cells incubated for 72 hrs by measuring 2-HG production by fluorescence based analysis. It counts as functional, cell-based. As to conditions: HT-1080, 72 h.
A short description of data set [17]: In vivo inhibition of 2-HG in BALB/c nude mouse xenografted with human HT-1080 cells harboring IDH1 R132C mutant at 50 mg/kg, po measured after 24 hrs post dose. It counts as functional.
Data set [18] in a line: In vivo inhibition of 2-HG in BALB/c nude mouse xenografted with human HT-1080 cells harboring IDH1 R132C mutant at 50 mg/kg, po measured after 40 hrs post dose. It counts as functional.
A short description of data set [19]: Ratio of drug concentration in brain to plasma of BALB/c nude mouse xenografted with human U-87 MG cells harboring IDH2 R140Q mutant at 50 mg/kg measured after 16 hrs by LC/MS/MS analysis. The data set is classed as ADME, organism-based. As to conditions: read-out: BPR.
Data set [20] in a line: Ratio of drug concentration in brain to plasma of BALB/c nude mouse xenografted with human U-87 MG cells harboring IDH2 R140Q mutant at 50 mg/kg measured after 24 hrs by LC/MS/MS analysis. It counts as ADME, organism-based. The settings on record: read-out: BPR.
Data set [21] concerns the target Isocitrate dehydrogenase [NADP], mitochondrial (Homo sapiens, UniProt P48735, R140Q). As to the kind of experiment: Inhibition of IDH2 R140Q mutant (unknown origin) using alpha-ketoglutarate as substrate preincubated with compound for 16 hrs followed by substrate addition and measured after 1 hr in presence of NADPH by fluorescence based analysis.
The nature of data set [22]: Inhibition of IDH2 R140Q mutant in human TF-1 cells incubated for 72 hrs by measuring 2-HG production by fluorescence based analysis. It counts as functional, cell-based. The settings on record: TF-1, 72 h.
Data set [23] in a line: Inhibition of IDH2 R172K mutant in human HEK293 cells incubated for 72 hrs by measuring 2-HG production by fluorescence based analysis. It counts as functional, cell-based. The settings on record: HEK293, 72 h.
A short description of data set [24]: In vivo inhibition of 2-HG in BALB/c nude mouse xenografted with human U-87 MG cells harboring IDH2 R140Q mutant at 25 mg/kg, po measured after 24 hrs post dose. The data set is classed as functional.
A short description of data set [25]: In vivo inhibition of 2-HG in BALB/c nude mouse xenografted with human U-87 MG cells harboring IDH2 R140Q mutant at 25 mg/kg, po measured after 40 hrs post dose. It counts as functional.
For the next data set, the target named is T1, Adenosine receptor A3 (Homo sapiens, UniProt P0DMS8).
T1 sequence (P0DMS8 whole entry): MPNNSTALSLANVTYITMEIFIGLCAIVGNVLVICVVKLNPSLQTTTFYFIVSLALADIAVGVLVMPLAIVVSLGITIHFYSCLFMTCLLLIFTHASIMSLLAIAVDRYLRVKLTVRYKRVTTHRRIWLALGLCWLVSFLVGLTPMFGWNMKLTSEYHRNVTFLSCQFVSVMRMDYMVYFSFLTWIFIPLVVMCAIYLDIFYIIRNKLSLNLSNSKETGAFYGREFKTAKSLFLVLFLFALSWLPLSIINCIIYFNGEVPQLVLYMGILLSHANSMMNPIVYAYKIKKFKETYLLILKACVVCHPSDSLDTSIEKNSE
Put plainly: Inhibition of adenosine A3 receptor (unknown origin). The data set is classed as toxicity.

Another data set deals with T2, UGT1A1 (Homo sapiens, UniProt P22309).
T2 sequence (P22309 whole entry): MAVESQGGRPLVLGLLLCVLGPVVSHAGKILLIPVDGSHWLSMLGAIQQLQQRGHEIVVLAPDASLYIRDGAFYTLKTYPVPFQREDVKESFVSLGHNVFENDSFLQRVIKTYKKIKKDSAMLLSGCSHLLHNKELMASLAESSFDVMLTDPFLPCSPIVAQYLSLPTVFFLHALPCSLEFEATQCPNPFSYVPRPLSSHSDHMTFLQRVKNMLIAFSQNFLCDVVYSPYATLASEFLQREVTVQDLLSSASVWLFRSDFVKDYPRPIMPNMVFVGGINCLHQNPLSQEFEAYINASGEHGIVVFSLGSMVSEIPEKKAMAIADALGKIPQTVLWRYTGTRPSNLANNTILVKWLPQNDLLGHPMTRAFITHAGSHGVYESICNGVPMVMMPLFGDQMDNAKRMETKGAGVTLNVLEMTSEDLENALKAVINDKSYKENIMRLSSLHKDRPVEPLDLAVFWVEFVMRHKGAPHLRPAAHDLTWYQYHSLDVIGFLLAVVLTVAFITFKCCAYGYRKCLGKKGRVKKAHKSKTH
As to the kind of experiment: Inhibition of UGT1A1 (unknown origin) at 10 uM relative to control. The data set is classed as ADME.

Experimental findings from ChEMBL document CHEMBL6103672, “Discovery of HMPL-306 (Ranosidenib), a New Potent and Selective Dual Inhibitor of Mutant IDH1 and 2 in Clinical Development for Cancer Treatment” (ACS Med Chem Lett, 2025) are described below.

Isocitrate dehydrogenase [NADP], mitochondrial, sequence (P48735 40-452 R140Q limits assumed): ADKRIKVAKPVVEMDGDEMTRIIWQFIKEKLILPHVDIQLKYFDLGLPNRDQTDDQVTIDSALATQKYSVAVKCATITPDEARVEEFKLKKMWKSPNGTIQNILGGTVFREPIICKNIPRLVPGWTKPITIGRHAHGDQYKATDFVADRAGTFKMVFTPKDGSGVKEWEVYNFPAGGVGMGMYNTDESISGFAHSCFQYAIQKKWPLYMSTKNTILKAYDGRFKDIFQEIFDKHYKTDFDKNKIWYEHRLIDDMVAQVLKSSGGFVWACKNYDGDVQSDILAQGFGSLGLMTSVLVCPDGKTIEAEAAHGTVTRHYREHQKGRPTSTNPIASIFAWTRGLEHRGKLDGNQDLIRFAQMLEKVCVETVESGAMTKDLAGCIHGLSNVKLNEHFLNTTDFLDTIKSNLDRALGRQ

Take `C[C@@H](Nc1nc(N[C@H](C)C(F)(F)F)nc(C2=C(F)[C@@H](O)CCC2)n1)C(F)(F)F`: the IC50 came to 0.042 µM in data set [1] and 0.1 µM in data set [2]. In data set [3], the Papp A→B at 1 h, 10 µM turned out to be 468 nm/s. Further, the basolateral-to-apical permeability (Papp B→A) at 1 h, 10 µM in data set [4] was found to be 259 nm/s. The remaining at 0.5 h, 1 µM in [5] was found to be 92.7%; in data set [6], 86.2%. This compound also came in with a clearance in data set [7] of 0.846 L/h/kg. For the same compound, the Vd in data set [8] is 1.16 L/kg. In addition, the half-life in data set [9] is 2 h. This compound registered a peak concentration (Cmax) in data set [10] of 4.95 µg/mL. Also, in data set [11], the area under the curve AUC(0-t) at 8 h is 14.8 µg·h/mL. The AUC(0-inf) in data set [12] turned out to be 15.8 µg·h/mL. Besides, in data set [13], the bioavailability was determined as 134%.
For the compound `N#Cc1ccnc(N2C(=O)CC[C@H]2C(=O)N(c2cncc(F)c2)[C@H](C(=O)NC2CC(F)(F)C2)c2ccccc2Cl)c1` [IVOSIDENIB], the results for the IC50 in [2], in [15] and in [16] were 0.032 µM, 0.068 µM and 0.009 µM, respectively. In data set [7], the clearance was found to be 0.912 L/h/kg. Also, in [8], the Vd turned out to be 1.94 L/kg. Also, the half-life in data set [9] is 2.6 h. Further, the Cmax in [10] stood at 1.27 µg/mL. This compound also had an AUC(0-t) at 24 h in data set [14] of 7.09 µg·h/mL. This compound also had an AUC(0-inf) in [12] of 7.1 µg·h/mL. The bioavailability in data set [13] was determined as 64.5%. The figures for the inhibition in vivo at 50 mg/kg in data set [17] and in data set [18] were 78% and 50%, respectively.
As to `C[C@@H](Nc1nc(N[C@H](C)C(F)(F)F)nc(-c2cccc(Cl)n2)n1)C(F)(F)F` [VORASIDENIB], the Kp at 16 h in data set [19] was found to be 1.4. In addition, the Kp at 24 h in data set [20] is 1.2.
For `CC(C)(O)CNc1nc(Nc2ccnc(C(F)(F)F)c2)nc(-c2cccc(C(F)(F)F)n2)n1` [ENASIDENIB], the IC50 in data set [21] was determined as 0.037 µM; in data set [1], 0.043 µM; in data set [22], 0.055 µM; in data set [23], 5.17 µM; against Adenosine receptor A3, 0.012 µM. This compound also yielded a clearance in data set [7] of 0.414 L/h/kg. The Vd in data set [8] amounted to 1.72 L/kg. The compound also showed a half-life in data set [9] of 3.3 h. The same compound came in with a Cmax in [10] of 1.87 µg/mL. In data set [14], this compound registered an AUC(0-t) at 24 h of 22.9 µg·h/mL. In [12], this compound yielded a total exposure AUC(0-inf) of 23 µg·h/mL. Further, in data set [13], the bioavailability is 95.1%. The “inhibition (INH)” value in data set [24] is recorded as 87%; in data set [25] it was 37%. Further, the inhibition at 10 µM on UGT1A1 came to 76.1%.
